Where only a bound is given, the exact number is not on record here.

What is called IC50 is the midpoint of a concentration-inhibition curve.

The target in this experiment is PIK3CG (human) (UniProt P48736). The experiment is described as follows: Assessment of PIK3CG Kinase Activity.
Sequence of PIK3CG (human) (P48736 whole entry, looked up): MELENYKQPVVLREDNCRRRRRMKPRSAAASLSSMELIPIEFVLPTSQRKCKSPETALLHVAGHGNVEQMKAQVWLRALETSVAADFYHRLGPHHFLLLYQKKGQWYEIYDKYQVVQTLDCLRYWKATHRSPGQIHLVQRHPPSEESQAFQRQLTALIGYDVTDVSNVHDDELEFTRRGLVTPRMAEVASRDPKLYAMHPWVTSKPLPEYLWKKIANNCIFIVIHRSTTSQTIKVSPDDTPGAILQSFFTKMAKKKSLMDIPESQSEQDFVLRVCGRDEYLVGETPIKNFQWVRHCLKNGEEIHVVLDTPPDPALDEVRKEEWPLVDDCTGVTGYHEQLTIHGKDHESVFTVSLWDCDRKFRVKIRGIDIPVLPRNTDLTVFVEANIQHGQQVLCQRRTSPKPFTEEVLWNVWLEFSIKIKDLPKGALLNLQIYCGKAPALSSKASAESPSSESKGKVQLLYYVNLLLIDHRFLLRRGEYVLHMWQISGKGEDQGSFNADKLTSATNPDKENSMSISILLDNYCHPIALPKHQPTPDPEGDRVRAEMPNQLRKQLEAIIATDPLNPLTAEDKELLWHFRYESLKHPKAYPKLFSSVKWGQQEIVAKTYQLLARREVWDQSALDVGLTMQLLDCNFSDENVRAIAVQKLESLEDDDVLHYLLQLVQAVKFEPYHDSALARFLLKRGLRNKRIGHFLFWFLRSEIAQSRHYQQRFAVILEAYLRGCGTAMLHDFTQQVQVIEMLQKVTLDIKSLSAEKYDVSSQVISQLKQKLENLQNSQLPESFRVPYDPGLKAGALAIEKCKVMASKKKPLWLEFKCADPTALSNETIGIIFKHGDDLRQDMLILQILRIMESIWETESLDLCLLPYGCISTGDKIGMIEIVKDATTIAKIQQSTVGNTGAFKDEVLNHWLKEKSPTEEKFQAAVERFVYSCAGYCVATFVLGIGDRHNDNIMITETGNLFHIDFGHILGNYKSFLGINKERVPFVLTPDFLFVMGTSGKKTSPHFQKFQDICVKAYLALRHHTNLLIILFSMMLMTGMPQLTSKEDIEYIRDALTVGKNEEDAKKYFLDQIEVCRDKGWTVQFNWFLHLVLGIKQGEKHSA

Regarding `O=C(Nc1nc2c(s1)-c1c(c(-c3ccccc3)nn1-c1ccccc1Cl)CC2)NC1CCN(S(=O)(=O)c2ccccc2)CC1`, the half-inhibitory concentration (IC50) was less than 800 nM. On to `CCOC(=O)CCCNC(=O)Nc1nc2c(s1)-c1c(c(-c3ccccc3)nn1-c1ccccc1Cl)CC2`, for which the IC50 is less than 800 nM. `O=C(Nc1nc2c(s1)-c1c(c(-c3cccnc3)nn1-c1ccccc1Cl)CC2)N1CCC(N2CCNC2=O)CC1` came in with an IC50 of less than 800 nM. The result for `CC(C)(C)OC(=O)NCCNC(=O)Nc1nc2c(s1)-c1c(c(-c3ccccc3)nn1-c1ccccc1Cl)CC2` reads less than 800 nM. Take `CS(=O)(=O)NCCNC(=O)Nc1nc2c(s1)-c1c(c(-c3ccccc3)nn1-c1ccccc1Cl)CC2`: the IC50 is less than 800 nM. `CN1CCC(n2nc(-c3cccnc3)c3c2-c2sc(NC(=O)NCc4cccc(N5CCNC5=O)c4)nc2CC3)CC1` came in with an IC50 of less than 800 nM.

`CCc1cnc(CCNC(=O)Nc2nc3c(s2)-c2c(c(-c4cccnc4)nn2C2CCN(C)CC2)CC3)o1` yielded a concentration for half-maximal inhibition (IC50) of less than 800 nM.

Compound `O=C(Nc1nc2c(s1)-c1c(c(-c3cccnc3)nn1-c1ccccc1Cl)CC2)N1CCC2(CC1)C(=O)NCN2c1ccccc1` showed a concentration for half-maximal inhibition (IC50) of less than 800 nM. For `CN1CCN(Cc2ccc(NC(=O)Nc3nc4c(s3)-c3c(c(-c5cncnc5)nn3-c3ccccc3F)CC4)cc2)CC1`, the half-inhibitory concentration (IC50) is less than 800 nM. Take `CN[C@@H](C)C(=O)N1CC[C@H](CNC(=O)Nc2nc3c(s2)-c2c(c(-c4cncnc4)nn2-c2ccccc2Cl)CC3)C1`: the IC50 was less than 800 nM. In turn, `O=C1CC[C@H](NC(=O)Nc2nc3c(s2)-c2c(c(-c4cccnc4)nn2-c2ccccc2Cl)CC3)CN1` had an IC50 of less than 800 nM. For the compound `O=C(NCCc1ccc2c(c1)OCCO2)Nc1nc2c(s1)-c1c(c(-c3cncnc3)nn1-c1ccccc1Cl)CC2`, the half-inhibitory concentration (IC50) was less than 800 nM. `O=C(NCc1ccc2cc[nH]c2c1)Nc1nc2c(s1)-c1c(c(-c3cccnc3)nn1-c1ccccc1Cl)CC2` displayed an IC50 of less than 800 nM. Compound `O=C1CCC(CNC(=O)Nc2nc3c(s2)-c2c(c(-c4cccnc4)nn2-c2ccccc2Cl)CC3)N1` (configuration not stated) gave an IC50 of less than 800 nM. The compound `CCCn1cnc(CCNC(=O)Nc2nc3c(s2)-c2c(c(-c4cncnc4)nn2-c2ccccc2Cl)CC3)c1` displayed an IC50 of less than 800 nM. Compound `CCn1cnc(CCNC(=O)Nc2nc3c(s2)-c2c(c(-c4cccnc4)nn2C2CCN(C)CC2)CC3)c1` returned an IC50 of less than 800 nM. `CN1CCC(n2nc(-c3cccnc3)c3c2-c2sc(NC(=O)NCC(=O)N(C)C)nc2CC3)CC1`: the IC50 was less than 800 nM.

As to `CN1CCN(C(=O)CCCNC(=O)Nc2nc3c(s2)-c2c(c(-c4ccccc4)nn2-c2ccccc2Cl)CC3)CC1`, the IC50 is less than 800 nM. `O=C(NCc1cccc(C(=O)NC2CCCCC2)c1)Nc1nc2c(s1)-c1c(c(-c3cccnc3)nn1-c1ccccc1Cl)CC2` yielded an IC50 of less than 800 nM.

On to `CCn1cnc(CCNC(=O)Nc2nc3c(s2)-c2c(c(-c4cccnc4)nn2C2CCN(C4CCCC4)CC2)CC3)c1`, for which the IC50 is less than 800 nM. For the compound `CN(C)C(=O)N1CCC[C@@H]1CNC(=O)Nc1nc2c(s1)-c1c(c(-c3cncnc3)nn1-c1ccccc1Cl)CC2`, the IC50 was less than 800 nM. In turn, `CC(C)c1cccc(CNC(=O)Nc2nc3c(s2)-c2c(c(C4CC4)nn2-c2ccccc2Cl)CC3)c1` had an IC50 of less than 800 nM. `CCOC(=O)N1CC[C@H](CNC(=O)Nc2nc3c(s2)-c2c(c(-c4cncnc4)nn2-c2ccccc2Cl)CC3)C1` gave a 50% inhibitory concentration (IC50) of less than 800 nM. Compound `Cc1c[nH]c(CCNC(=O)Nc2nc3c(s2)-c2c(c(-c4cccnc4)nn2-c2ccccc2Cl)CC3)n1` displayed a half-inhibitory concentration (IC50) of less than 800 nM. As for `NC(=O)Nc1nc2c(s1)-c1c(c(-c3cccnc3)nn1-c1ccccc1Cl)CC2`, the IC50 was less than 800 nM. The compound `CN(Cc1cccc(CNC(=O)Nc2nc3c(s2)-c2c(c(-c4cccnc4)nn2-c2ccccc2Cl)CC3)c1)C(=O)OC(C)(C)C` showed an IC50 of less than 800 nM. The compound `CN(C)C(=O)Nc1nc2c(s1)-c1c(c(-c3cccnc3)nn1-c1ccccc1Cl)CC2` came in with a 50% inhibitory concentration (IC50) of less than 800 nM.

(Values after the Kinase Knowledgebase extract (Sharma et al. 2016).)
